According to PMC8979340 (RSC Advances, 2022):
pEC50, pIC50: −log10 of the molar value.

Experiments:
human TGR5 = target: T1, human TGR5 (Homo sapiens, UniProt Q8TDU6); assay: cAMP HTRF TGR5 agonism assay in HEK293T cells expressing human TGR5; type: cell-based; conditions: for TGR5 agonistic activity (in words): hTGR5, cAMP HTRF
T1 sequence (Q8TDU6 1-330): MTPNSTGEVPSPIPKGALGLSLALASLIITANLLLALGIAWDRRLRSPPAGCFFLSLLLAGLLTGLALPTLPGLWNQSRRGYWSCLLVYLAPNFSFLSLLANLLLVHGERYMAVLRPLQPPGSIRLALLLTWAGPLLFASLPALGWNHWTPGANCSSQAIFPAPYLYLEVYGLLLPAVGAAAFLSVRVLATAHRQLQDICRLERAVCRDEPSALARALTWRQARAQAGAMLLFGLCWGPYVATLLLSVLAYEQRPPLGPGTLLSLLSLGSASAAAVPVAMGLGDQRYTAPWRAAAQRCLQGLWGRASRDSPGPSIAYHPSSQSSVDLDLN

HeLa cells = assay: CCK8 cytotoxicity assay in HeLa cells; type: cell-based; conditions: Homo sapiens, read-out: IC50 HeLa
A549 cells = assay: CCK8 cytotoxicity assay in A549 cells; type: cell-based; conditions: Homo sapiens, A549, read-out: IC50 A549
mouse TGR5 = target: T2, mouse TGR5 (Mus musculus, UniProt Q80SS6); assay: cAMP HTRF TGR5 agonism assay in HEK293T cells expressing mouse TGR5; type: cell-based
T2 sequence (Q80SS6 1-329): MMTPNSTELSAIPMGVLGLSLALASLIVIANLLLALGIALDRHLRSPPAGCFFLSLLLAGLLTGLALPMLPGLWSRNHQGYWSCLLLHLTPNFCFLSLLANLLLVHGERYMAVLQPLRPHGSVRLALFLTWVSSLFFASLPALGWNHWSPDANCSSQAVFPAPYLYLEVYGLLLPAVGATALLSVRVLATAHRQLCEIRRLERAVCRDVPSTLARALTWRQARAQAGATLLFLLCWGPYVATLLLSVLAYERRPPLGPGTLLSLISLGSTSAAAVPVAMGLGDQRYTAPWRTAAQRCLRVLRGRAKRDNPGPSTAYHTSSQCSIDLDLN

[1] = In vitro human plasma stability assay; type: in vitro ADME
C57 BL/6 mice = assay: In vivo GLP-1 secretion; conditions: 50 mg kg−1 oral, blood 4 h later
NCI-H716 cells = assay: In vitro GLP-1 secretion assay; type: cell-based, human; conditions: 4 μM, 2 h

O=C(C1Cc2ccccc2CN1Cc1ccc(Cl)cc1)N1CCN(C2CC2)c2ccccc21 (stereo not shown) [18a, (2-(4-Chlorobenzyl)-1,2,3,4-tetrahydroisoquinolin-3-yl)(4-cyclopropyl-3,4-dihydroquinoxalin-1(2H)-yl)methanone]
pEC50 (human TGR5): < 4.52 | TGR5 agonistic activity (in words) (human TGR5): no TGR5 agonistic activities

O=C(c1cc2ccccc2n1Cc1ccc(Cl)cc1)N1CCN(C2CC2)c2ccccc21 [18b, (1-(4-Chlorobenzyl)-1H-indol-2-yl)(4-cyclopropyl-3,4-dihydroquinoxalin-1(2H)-yl)methanone]
pEC50 (human TGR5): < 4.52 | TGR5 agonistic activity (in words) (human TGR5): no TGR5 agonistic activities

O=C(c1cc2sccc2n1Cc1ccc(Cl)cc1)N1CCN(C2CC2)c2ccccc21 [18c, (4-(4-Chlorobenzyl)-4H-thieno[3,2-b]pyrrol-5-yl)(4-cyclopropyl-3,4-dihydroquinoxalin-1(2H)-yl)methanone]
pEC50 (human TGR5): < 4.52 | TGR5 agonistic activity (in words) (human TGR5): no TGR5 agonistic activities

O=C(c1nccnc1Oc1ccc(Cl)cc1)N1CCN(C2CC2)c2ccccc21 [18d, (3-(4-Chlorophenoxy)pyrazin-2-yl)(4-cyclopropyl-3,4-dihydroquinoxalin-1(2H)-yl)methanone]
pEC50 (human TGR5): 5.82

O=C(c1nccnc1Oc1ccc(F)cc1)N1CCN(C2CC2)c2ccccc21 [18e, (4-Cyclopropyl-3,4-dihydroquinoxalin-1(2H)-yl)(3-(4-fluorophenoxy)pyrazin-2-yl)methanone]
pEC50 (human TGR5): 6.35

O=C(c1nccnc1Oc1ccccc1F)N1CCN(C2CC2)c2ccccc21 [18f, (4-Cyclopropyl-3,4-dihydroquinoxalin-1(2H)-yl)(3-(2-fluorophenoxy)pyrazin-2-yl)methanone]
pEC50 (human TGR5): 7.43

O=C(c1nccnc1Oc1ccccc1Cl)N1CCN(C2CC2)c2ccccc21 [18g, (3-(2-Chlorophenoxy)pyrazin-2-yl)(4-cyclopropyl-3,4-dihydroquinoxalin-1(2H)-yl)methanone]
pIC50 (HeLa cells): < 4.30 | pIC50 (A549 cells): < 4.30 | pEC50 (mouse TGR5): 6.92 | pEC50 (human TGR5): 8.84

COc1ccc(Oc2nccnc2C(=O)N2CCN(C3CC3)c3ccccc32)cc1 [18h, (4-Cyclopropyl-3,4-dihydroquinoxalin-1(2H)-yl)(3-(4-methoxyphenoxy)pyrazin-2-yl)methanone]
pEC50 (human TGR5): 6.71

Cc1ccc(Oc2nccnc2C(=O)N2CCN(C3CC3)c3ccccc32)cc1 [18i, (4-Cyclopropyl-3,4-dihydroquinoxalin-1(2H)-yl)(3-(p-tolyloxy)pyrazin-2-yl)methanone]
pEC50 (human TGR5): 7.08

O=C(c1nccnc1Oc1ccc(Cl)cc1Cl)N1CCN(C2CC2)c2ccccc21 [18j, (4-Cyclopropyl-3,4-dihydroquinoxalin-1(2H)-yl)(3-(2,4-dichlorophenoxy)pyrazin-2-yl)methanone]
pIC50 (HeLa cells): < 4.30 | pIC50 (A549 cells): < 4.30 | pEC50 (mouse TGR5): 6.27 | pEC50 (human TGR5): 8.00

O=C(c1nccnc1Oc1cc(Cl)ccc1Cl)N1CCN(C2CC2)c2ccccc21 [18k, (4-Cyclopropyl-3,4-dihydroquinoxalin-1(2H)-yl)(3-(2,5-dichlorophenoxy)pyrazin-2-yl)methanone]
half-life [1]: > 4.82 h | remaining at 0 h [1]: 100% | remaining at 0.5 h [1]: 104% | remaining at 1 h [1]: 102% | remaining at 2 h [1]: 85.4% | pIC50 (HeLa cells): < 4.30 | pIC50 (A549 cells): < 4.30 | pEC50 (mouse TGR5): 6.57 | GLP-1 secretion compared to control (C57 BL/6 mice): increase GLP-1 secretion | pEC50 (human TGR5): 9.24 | GLP-1 secretion compared to control (NCI-H716 cells): increase the secretion of GLP-1

O=C(c1nccnc1Oc1ccc(-c2ccccc2)cc1)N1CCN(C2CC2)c2ccccc21 [18l, (3-([1,1′-Biphenyl]-4-yloxy)pyrazin-2-yl)(4-cyclopropyl-3,4-dihydroquinoxalin-1(2H)-yl)methanone]
pEC50 (human TGR5): 6.05

O=C(c1nccnc1Oc1cc(Cl)ccc1Cl)N1CCN(c2ccccc2F)CC1 [18o, (3-(2,5-Dichlorophenoxy)pyrazin-2-yl)(4-(2-fluorophenyl)piperazin-1-yl)methanone]
pEC50 (human TGR5): < 5.00

CN(C(=O)c1nccnc1Oc1cc(Cl)ccc1Cl)c1ccc(F)cc1 [18r, 3-(2,5-Dichlorophenoxy)-N-(4-fluorophenyl)-N-methylpyrazine-2-carboxamide]
pEC50 (human TGR5): < 5.00

O=C(c1nccnc1Oc1cc(Cl)ccc1Cl)N1CCOc2ccccc21 [18u, (3-(2,5-Dichlorophenoxy)pyrazin-2-yl)(2,3-dihydro-4H-benzo[b][1,4]oxazin-4-yl)methanone]
pEC50 (human TGR5): < 5.00
